From patent US11229636B2, “Substituted tetrahydroquinolinone compounds as ROR gamma modulators” (Aurigene Discovery Technologies Limited, priority 2015, dated 2022)

target: ROR gamma ligand binding domain (Homo sapiens (Human), UniProt P51449); assay: ROR gamma luciferase reporter assay (GAL4-ROR gamma LBD, HEK293 cells); assay type: cell-based; settings: 48 hours treatment, read-out: RORγ luciferase Reporter assay: IC50 (nM) (in range)
Procedure: The Ligand Binding Domain (LBD) of ROR gamma was cloned into pFN26A (BIND) hRluc-neo Flexi vector (Promega) which expresses a fusion protein comprised of a DNA binding domain of the yeast GAL4 gene, a linker segment and ROR gamma ligand binding domain. For the reporter assay 0.02×10^6 HEK293 cells were seeded per well in a 96 well plate in complete media and incubated overnight in an incubator with 5% CO2 at 37° C. before transfection. Cells were then co-transfected with pFN26A hRluc-neo Flexi vector containing the LBD of ROR gamma and pGL4.35 [luc2P/9XGAL4 UAS/Hygro] Vector (Promega) in low serum media. Post transfection and recovery, cells were treated with the test compounds for 48 hours. The assay was terminated using the Bright-Glo Luciferase assay system from Promega and the Luminescence was measured using a luminescence reader. The luminescence values were used to calculate the potency of the compounds.

Chain of ROR gamma ligand binding domain (P51449 269-508): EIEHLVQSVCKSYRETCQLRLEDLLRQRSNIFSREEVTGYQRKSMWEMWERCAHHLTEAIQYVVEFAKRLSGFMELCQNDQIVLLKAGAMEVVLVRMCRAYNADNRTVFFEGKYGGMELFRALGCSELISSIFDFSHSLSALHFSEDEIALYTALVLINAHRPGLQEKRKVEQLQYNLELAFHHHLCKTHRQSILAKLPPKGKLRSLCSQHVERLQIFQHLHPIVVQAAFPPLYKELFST

For `CCS(=O)(=O)c1ccc(CC(=O)Nc2ccc3c(n2)CCC(C)(c2nccn4cc(C(F)(F)F)nc24)C3=O)cc1` (stereo not drawn) [Compound 72, 2-(4-(ethylsulfonyl)phenyl)-N-(6-methyl-5-oxo-6-(2-(trifluoromethyl)-imidazo[1,2-a]pyrazin-8-yl)-5,6,7,8-tetrahydroquinolin-2-yl)acetamide], which IC50 is on record?
Its IC50 is < 100 nM.

With `CCS(=O)(=O)c1ccc(CC(=O)Nc2ccc3c(n2)CC(C)C(C)(c2cc(C)nc(C)n2)C3=O)cc1` (stereo not drawn) [Compound 81, N-(6-(2,6-dimethylpyrimidin-4-yl)-6,7-dimethyl-5-oxo-5,6,7,8-tetrahydroquinolin-2-yl)-2-(4-(ethylsulfonyl)phenyl)acetamide] as the compound, how does the IC50 read?
The IC50 was < 100 nM.

Which IC50 does the source give for `CCS(=O)(=O)c1ccc(CC(=O)Nc2ccc3c(n2)CCC(C)(c2nc(C)cn4cc(C)nc24)C3=O)cc1` (stereo not drawn) [Compound 51, N-(6-(2,6-dimethylimidazo[1,2-a]pyrazin-8-yl)-6-methyl-5-oxo-5,6,7,8-tetrahydroquinolin-2-yl)-2-(4-(ethylsulfonyl)phenyl)acetamide] here?
Its IC50 is < 100 nM.

For `CCS(=O)(=O)c1ccc(CC(=O)Nc2ccc3c(n2)CCC(C)(c2nccn4c(C)cnc24)C3=O)cc1` (single isomer, unassigned) [compound 114, 2-(4-(ethylsulfonyl)phenyl)-N-(6-methyl-6-(3-methylimidazo[1,2-a]pyrazin-8-yl)-5-oxo-5,6,7,8-tetrahydroquinolin-2-yl)acetamide], which IC50 is on record?
Its IC50 is > 500 nM.

With `CCS(=O)(=O)c1ccc(CC(=O)Nc2ccc3c(n2)CCC(C)(c2ccc(Cl)nn2)C3=O)cc1` (stereo not drawn) [Compound 93, N-(6-(6-chloropyridazin-3-yl)-6-methyl-5-oxo-5,6,7,8-tetrahydroquinolin-2-yl)-2-(4-(ethylsulfonyl)phenyl)acetamide] as the compound, how does the IC50 read?
The IC50 was > 500 nM.

For `CCS(=O)(=O)c1ccc(CC(=O)Nc2ccc3c(n2)CCC(C)(c2cc(C)nc(C(F)(F)F)n2)C3=O)cc1` (stereo not drawn) [Compound 78, 2-(4-(ethylsulfonyl)phenyl)-N-(6-methyl-6-(6-methyl-2-(trifluoromethyl)-pyrimidin-4-yl)-5-oxo-5,6,7,8-tetrahydroquinolin-2-yl)acetamide], which IC50 is on record?
The IC50 was 100 to 500 nM.

For `CCS(=O)(=O)c1ccc(CC(=O)Nc2ccc3c(n2)CCC(C)(c2cc(C)nc(C)n2)C3=O)nc1` (single isomer, unassigned) [compound 124, N-(6-(2,6-dimethylpyrimidin-4-yl)-6-methyl-5-oxo-5,6,7,8-tetrahydroquinolin-2-yl)-2-(5-(ethylsulfonyl)pyridin-2-yl)acetamide], which IC50 is on record?
The IC50 was 100 to 500 nM.

Which IC50 does the source give for `CCS(=O)(=O)c1ccc(CC(=O)Nc2cc(C)c3c(n2)CCC(C)(c2ccc(=O)n(C)n2)C3=O)cc1` (stereo not drawn) [Compound 70, N-(4,6-dimethyl-6-(1-methyl-6-oxo-1,6-dihydropyridazin-3-yl)-5-oxo-5,6,7,8-tetrahydroquinolin-2-yl)-2-(4-(ethylsulfonyl)phenyl)acetamide] here?
The IC50 was > 500 nM.

`CCS(=O)(=O)c1ccc(CC(=O)Nc2ccc3c(n2)CCC(C)(c2cc(C)nc(C)n2)C3=O)nc1` (single isomer, unassigned) [compound 123, N-(6-(2,6-dimethylpyrimidin-4-yl)-6-methyl-5-oxo-5,6,7,8-tetrahydroquinolin-2-yl)-2-(5-(ethylsulfonyl)pyridin-2-yl)acetamide] was tested. Which IC50 did it give?
Its IC50 is > 500 nM.

With `CCS(=O)(=O)c1ccc(CC(=O)Nc2ccc3c(n2)CCC(C)(c2nccn4c(F)c(C)nc24)C3=O)cc1` (stereo not drawn) [Compound 66, 2-(4-(ethylsulfonyl)phenyl)-N-(6-(3-fluoro-2-methylimidazo[1,2-a]pyrazin-8-yl)-6-methyl-5-oxo-5,6,7,8-tetrahydroquinolin-2-yl)acetamide] as the compound, how does the IC50 read?
The IC50 was < 100 nM.

`CCS(=O)(=O)c1ccc(CC(=O)Nc2ccc3c(n2)CCC(C)(c2nccn4c(C(F)(F)F)cnc24)C3=O)cc1` (stereo not drawn) [Compound 74, 2-(4-(ethylsulfonyl)phenyl)-N-(6-methyl-5-oxo-6-(3-(trifluoromethyl)-imidazo[1,2-a]pyrazin-8-yl)-5,6,7,8-tetrahydroquinolin-2-yl)acetamide] was tested. Which IC50 did it give?
The IC50 was < 100 nM.

How did the IC50 turn out when `CCS(=O)(=O)c1ccc(CC(=O)Nc2ccc3c(n2)CCC(C)(c2ncc(C)n4ccnc24)C3=O)cc1` (stereo not drawn) [Compound 68, 2-(4-(ethylsulfonyl)phenyl)-N-(6-methyl-6-(5-methylimidazo[1,2-a]pyrazin-8-yl)-5-oxo-5,6,7,8-tetrahydroquinolin-2-yl)acetamide] was run?
Its IC50 is 100 to 500 nM.

With `CCS(=O)(=O)c1ccc(CNC(=O)c2ccc3c(n2)CCC(C)(c2cc(C)nc(C)n2)C3=O)cc1` (single isomer, unassigned) [compound 126, 6-(2,6-dimethylpyrimidin-4-yl)-N-(4-(ethylsulfonyl)benzyl)-6-methyl-5-oxo-5,6,7,8-tetrahydroquinoline-2-carboxamide] as the compound, how does the IC50 read?
Its IC50 is > 500 nM.

Which IC50 does the source give for `CCS(=O)(=O)c1ccc(CC(=O)Nc2ccc3c(n2)CCC(C)(c2cc(OC)nc(C)n2)C3=O)cc1` (stereo not drawn) [Compound 65, 2-(4-(ethylsulfonyl)phenyl)-N-(6-(6-methoxy-2-methylpyrimidin-4-yl)-6-methyl-5-oxo-5,6,7,8-tetrahydroquinolin-2-yl)acetamide] here?
The IC50 was < 100 nM.

With `CCS(=O)(=O)c1ccc(CC(=O)Nc2ccc3c(n2)CCC(C)(c2ccc(OC(C)C)nn2)C3=O)cc1` (stereo not drawn) [Compound 57, 2-(4-(ethylsulfonyl)phenyl)-N-(6-(6-isopropoxypyridazin-3-yl)-6-methyl-5-oxo-5,6,7,8-tetrahydroquinolin-2-yl)acetamide] as the compound, how does the IC50 read?
Its IC50 is > 500 nM.

Which IC50 does the source give for `CCS(=O)(=O)c1ccc(CC(=O)Nc2cc(C)c3c(n2)CCC(C)(c2cc(C)c(OC)nn2)C3=O)cc1` (stereo not drawn) [Compound 96, 2-(4-(ethylsulfonyl)phenyl)-N-(6-(6-methoxy-5-methylpyridazin-3-yl)-4,6-dimethyl-5-oxo-5,6,7,8-tetrahydroquinolin-2-yl)acetamide] here?
Its IC50 is 100 to 500 nM.

`CCS(=O)(=O)c1ccc(CC(=O)Nc2cc(C)c3c(n2)CCC(C)(c2cc(OC)cnn2)C3=O)cc1` (stereo not drawn) [Compound 73, 2-(4-(ethylsulfonyl)phenyl)-N-(6-(5-methoxypyridazin-3-yl)-4,6-dimethyl-5-oxo-5,6,7,8-tetrahydroquinolin-2-yl)acetamide] was tested. Which IC50 did it give?
The IC50 was > 500 nM.

How did the IC50 turn out when `CCS(=O)(=O)c1ccc(CC(=O)Nc2ccc3c(n2)CCC(C)(c2nccn4c(C5CC5)cnc24)C3=O)cc1` (stereo not drawn) [Compound 71, N-(6-(3-cyclopropylimidazo[1,2-a]pyrazin-8-yl)-6-methyl-5-oxo-5,6,7,8-tetrahydroquinolin-2-yl)-2-(4-(ethylsulfonyl)phenyl)acetamide] was run?
The IC50 was 100 to 500 nM.

With `CCS(=O)(=O)c1ccc(CC(=O)Nc2cc(C)c3c(n2)CCC(C)(c2ccc(N(C)C)nn2)C3=O)cc1` (stereo not drawn) [Compound 98, N-(6-(6-(dimethylamino)pyridazin-3-yl)-4,6-dimethyl-5-oxo-5,6,7,8-tetrahydroquinolin-2-yl)-2-(4-(ethylsulfonyl)phenyl)acetamide] as the compound, how does the IC50 read?
The IC50 was 100 to 500 nM.

`CCS(=O)(=O)c1ccc(CC(=O)Nc2ccc3c(n2)CCC(C)(c2cc(C(F)(F)F)nc(C)n2)C3=O)cc1` (stereo not drawn) [Compound 67, 2-(4-(ethylsulfonyl)phenyl)-N-(6-methyl-6-(2-methyl-6-(trifluoromethyl)-pyrimidin-4-yl)-5-oxo-5,6,7,8-tetrahydroquinolin-2-yl)acetamide] was tested. Which IC50 did it give?
The IC50 was > 500 nM.

How did the IC50 turn out when `CCS(=O)(=O)c1ccc(CC(=O)Nc2ccc3c(n2)CCC(C)(c2nccn4cc(C)nc24)C3=O)c(F)c1` (stereo not drawn) [Compound 58, 2-(4-(ethylsulfonyl)-2-fluorophenyl)-N-(6-methyl-6-(2-methylimidazo[1,2-a]pyrazin-8-yl)-5-oxo-5,6,7,8-tetrahydroquinolin-2-yl)acetamide] was run?
The IC50 was 100 to 500 nM.

Which IC50 does the source give for `CCS(=O)(=O)c1ccc(CC(=O)Nc2cc3c(cn2)C(=O)C(C)(c2cc(C)nc(C)n2)CC3)cc1` (stereo not drawn) [Compound 83, N-(7-(2,6-dimethylpyrimidin-4-yl)-7-methyl-8-oxo-5,6,7,8-tetrahydroisoquinolin-3-yl)-2-(4-(ethylsulfonyl)phenyl)acetamide] here?
Its IC50 is 100 to 500 nM.

`CCS(=O)(=O)c1ccc(CC(=O)Nc2ccc3c(n2)CCC(C)(c2nccn4c(F)cnc24)C3=O)cc1` (stereo not drawn) [Compound 97, 2-(4-(ethylsulfonyl)phenyl)-N-(6-(3-fluoroimidazo[1,2-a]pyrazin-8-yl)-6-methyl-5-oxo-5,6,7,8-tetrahydroquinolin-2-yl)acetamide] was tested. Which IC50 did it give?
The IC50 was > 500 nM.

`CCS(=O)(=O)c1ccc(CC(=O)Nc2cc(C)c3c(n2)CCC(C)(c2cc(C4CC4)c(OC)nn2)C3=O)cc1` (stereo not drawn) [Compound 76, N-(6-(5-cyclopropyl-6-methoxypyridazin-3-yl)-4,6-dimethyl-5-oxo-5,6,7,8-tetrahydroquinolin-2-yl)-2-(4-(ethylsulfonyl)phenyl)acetamide] was tested. Which IC50 did it give?
The IC50 was 100 to 500 nM.

`CCS(=O)(=O)c1ccc(CC(=O)Nc2ccc3c(n2)C(C)CC(C)(c2nccn4ccnc24)C3=O)cc1` (stereo not drawn) [Compound 48, 2-(4-(ethylsulfonyl)phenyl)-N-(6-(imidazo[1,2-a]pyrazin-8-yl)-6,8-dimethyl-5-oxo-5,6,7,8-tetrahydroquinolin-2-yl)acetamide] was tested. Which IC50 did it give?
The IC50 was > 500 nM.

With `CCS(=O)(=O)c1ccc(CC(=O)Nc2ccc3c(n2)CCC(C)(c2nccn4c(C)cnc24)C3=O)cc1` (single isomer, unassigned) [compound 113, 2-(4-(ethylsulfonyl)phenyl)-N-(6-methyl-6-(3-methylimidazo[1,2-a]pyrazin-8-yl)-5-oxo-5,6,7,8-tetrahydroquinolin-2-yl)acetamide] as the compound, how does the IC50 read?
The IC50 was < 100 nM.

For `CCS(=O)(=O)c1ccc(CC(=O)Nc2ccc3c(n2)CCC(C)(c2cc(OC)nc(C)n2)C3=O)cc1` (single isomer, unassigned) [compound 116, 2-(4-(ethylsulfonyl)phenyl)-N-(6-(6-methoxy-2-methylpyrimidin-4-yl)-6-methyl-5-oxo-5,6,7,8-tetrahydroquinolin-2-yl)acetamide], which IC50 is on record?
Its IC50 is > 500 nM.
